Active and inactive are the calls of the source. The calls are words filed in the database; no cut-off is given here.

We go through 18 compounds from ChEMBL document CHEMBL5620413, “Novel pterostilbene derivatives ameliorate heart failure by reducing oxidative stress and inflammation through regulating Nrf2/NF-κB signaling pathway” (Eur J Med Chem, 2023).

In the assay the test system is RAW264.7. The experiment in a line: Antiinflammatory activity in mouse RAW264.7 cells assessed as decrease in LPS-induced NO production at 10 uM preincubated for 1 hr followed by LPS treatment for 24 hrs by Griess reagent based assay. In kind it is functional, cell-based. To be noted: time 25.0 hrs. (In general: Griess reagent forms a coloured azo dye with nitrite.)
As for `C=CCOc1ccc(/C=C/c2cc(OC)cc(OC)c2C2CC(C)=NN2C(C)=O)cc1` (stereo not drawn), the result was Active.

With `CCCOc1ccc(/C=C/c2cc(OC)cc(OC)c2/C=C/C(=O)c2cccc(C)c2)cc1`, the result was Active.

Regarding `COCCCCOc1ccc(/C=C/c2cc(OC)cc(OC)c2/C=C/C(=O)c2cccc(C)c2)cc1`, the outcome was Active.

As to `C=CCOc1ccc(/C=C/c2cc(OC)cc(OC)c2/C=C/C(=O)c2cccc(OC)c2)cc1`, the outcome was Active.

On to `CCCCOc1ccc(/C=C/c2cc(OC)cc(OC)c2/C=C/C(=O)c2cccc(Br)c2)cc1`, for which the result was Active.

As to `CCCOc1ccc(/C=C/c2cc(OC)cc(OC)c2C2CC(C)=NN2C(C)=O)cc1` (stereo not drawn), the outcome was Active.

For `COc1cc(/C=C/c2ccc(OCC3CCCCC3)cc2)c(C2CC(C)=NN2C(C)=O)c(OC)c1` (stereo not drawn), the result was Active.

Consider `COCCCCOc1ccc(/C=C/c2cc(OC)cc(OC)c2C2CC(C)=NN2C(C)=O)cc1` (stereo not drawn), for which the outcome was Active.

With `C=CCOc1ccc(/C=C/c2cc(OC)cc(OC)c2/C=C/C(=O)c2cccc(Br)c2)cc1`, the result was Active.

Consider `COCCOc1ccc(/C=C/c2cc(OC)cc(OC)c2/C=C/C(=O)c2cccc(OC)c2)cc1`, for which the outcome was Active.

In the case of `COCCOc1ccc(/C=C/c2cc(OC)cc(OC)c2/C=C/C(=O)c2ccccc2)cc1`, the result was Active.

On to `C=CCOc1ccc(/C=C/c2cc(OC)cc(OC)c2/C=C/C(=O)c2cccc(C)c2)cc1`, for which the outcome was Active.

For `COc1cc(/C=C/c2ccc(OCCOc3ccccc3)cc2)c(C2CC(C)=NN2C(C)=O)c(OC)c1` (stereo not drawn), the outcome was Active.

For `CCCCOc1ccc(/C=C/c2cc(OC)cc(OC)c2/C=C/C(=O)c2cccc(C)c2)cc1`, the result was Active.

Regarding `CCC(C)Oc1ccc(/C=C/c2cc(OC)cc(OC)c2C2CC(C)=NN2C(C)=O)cc1` (stereo not drawn), the outcome was Active.

For the compound `COCCOc1ccc(/C=C/c2cc(OC)cc(OC)c2/C=C/C(=O)c2cccc(C)c2)cc1`, the result was Active.

Consider `COc1cc(/C=C/c2ccc(OCc3ccc(F)cc3)cc2)c(/C=C/C(=O)c2cccc(C)c2)c(OC)c1`, for which the result was Active.

`C=CCOc1ccc(/C=C/c2cc(OC)cc(OC)c2/C=C/C(=O)c2ccccc2)cc1`: the result was Active.
